Test results: patent publication US8618154B2, “LXR modulators” (Bristol-Myers Squibb Company, priority 2009, dated 2013)
Like-named read-outs stand apart in the source and are kept apart here.

Target: T1, LXRα (Homo sapiens, UniProt Q13133)
T1 construct: Co-transfection expression plasmids, comprising full-length LXRα (pCMX-h LXRα); expressed in transfected cells; host or cells: CV-1 African green monkey kidney cells, transient transfection with FuGENE6
T1 sequence (Q13133 1-447): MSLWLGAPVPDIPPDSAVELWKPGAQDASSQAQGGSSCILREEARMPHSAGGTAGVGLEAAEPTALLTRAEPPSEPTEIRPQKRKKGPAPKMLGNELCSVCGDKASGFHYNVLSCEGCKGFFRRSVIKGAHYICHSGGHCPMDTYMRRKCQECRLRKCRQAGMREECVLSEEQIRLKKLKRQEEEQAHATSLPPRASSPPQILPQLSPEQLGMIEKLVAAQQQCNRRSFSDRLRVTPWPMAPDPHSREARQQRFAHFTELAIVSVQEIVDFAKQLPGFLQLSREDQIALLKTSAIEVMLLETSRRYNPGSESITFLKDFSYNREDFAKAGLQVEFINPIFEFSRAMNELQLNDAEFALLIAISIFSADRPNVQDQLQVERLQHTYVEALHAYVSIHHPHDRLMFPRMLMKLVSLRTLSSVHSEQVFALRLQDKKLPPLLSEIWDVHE
T1 sequence (P19793 1-462 partner): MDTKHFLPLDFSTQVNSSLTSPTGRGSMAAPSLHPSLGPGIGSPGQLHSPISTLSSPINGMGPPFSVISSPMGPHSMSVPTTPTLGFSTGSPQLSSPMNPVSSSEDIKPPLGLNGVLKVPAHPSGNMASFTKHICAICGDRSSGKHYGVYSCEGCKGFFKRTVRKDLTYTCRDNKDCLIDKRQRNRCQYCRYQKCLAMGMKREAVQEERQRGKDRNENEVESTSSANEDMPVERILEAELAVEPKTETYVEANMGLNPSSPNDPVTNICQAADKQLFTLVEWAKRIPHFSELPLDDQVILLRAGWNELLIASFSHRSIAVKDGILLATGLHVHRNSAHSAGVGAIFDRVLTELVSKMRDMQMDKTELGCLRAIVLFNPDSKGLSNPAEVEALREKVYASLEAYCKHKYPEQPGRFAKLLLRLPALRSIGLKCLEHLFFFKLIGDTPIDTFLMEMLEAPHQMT
Assay: LXR/LXRE co-transfection assay (LXRα)
Assay type: cell-based
Settings: for EC50: CV-1 cells, LXRE luciferase reporter; for Emax: read-out: LXRα Eff (%)
From the text: To measure the ability of compounds to activate or inhibit the transcriptional activity of LXR in a cell based assay, the co-transfection assay was used. It has been shown that LXR functions as a heterodimer with RXR. For the co-transfection assay, expression plasmids for LXRα and LXRβ are introduced separately via transient transfection into mammalian cells along with a luciferase reporter plasmid that contains one copy of a DNA sequence that is bound by LXR-RXR heterodimers (LXRE; Willy, P. et. al. 1995). LXRs heterodimerize with the endogenous RXR. Treatment of transfected cells with an LXR agonist increases the transcriptional activity of LXR, which is measured by an increase in luciferase activity.
Co-transfection expression plasmids, comprising full-length LXRα (pCMX-h LXRα or LXRβ (pCMX-hLXRβ), reporter plasmid (LXREx1-Tk-Luciferase), and control (pCMX-Galactosidase expression vector) (Willey et al. Genes & Development 9 1033-1045 (1995)).
CV-1 cells were prepared 24 hours prior to the experiment by plating them into T-175 flasks or 500 cm^2 dishes in order to achieve 70-80% confluency on the day of the transfection. The number of cells to be transfected was determined by the number of plates to be screened. Each well of a 384 well plate requires ˜8000 cells. DNA Transfection Reagent was prepared by mixing the required plasmid DNAs with a cationic lipid transfection reagent FuGENE6 (Roche) by following the instructions provided with the reagents. Optimal DNA amounts were determined empirically per cell line and size of vessel to be transfected. For each T175 cm^2 flask a total of 20 μg of DNA, 60 μl of Fugene 6 and 1 ml of Optimem was mixed and added. Cells were then incubated at least 5 hours at 37° C. to prepare screening cells.
Assay plates were prepared by dispensing 5 μL, of compound per well of a 384 well plate to achieve final compound concentration of 10 μM and no more than 0.5% DMSO. Media was removed from the screening cells, the cells trypsinized, harvested cells by centrifugation, counted, and plated at a density of approximately 8000 cells per well in the 384 well assay plate prepared above in a volume of about 45 μL. Assay plates containing both compounds and screening cells (50 μL, in total volume) were incubated for 20 hours at 37° C.
After incubation with compounds, media was removed from the cells and luciferase assay reagent (30 μL/well) added. After ˜2 minutes at ambient temperature, the assay plates were read on a luminometer (PE Biosystems Northstar reader with on-board injectors, or equivalent).
The LXR/LXRE co-transfection assay can be used to establish the EC50/IC50 values for potency and percent activity or inhibition for efficacy. Efficacy defines the activity of a compound relative to a high control ((N-(3-((4-fluorophenyl)-(naphthalene-2-sulfonyl)amino)propyl)-2,2-dimethylpropionamide)) or a low control (DMSO/vehicle). The dose response curves are generated from a 10 point curve with concentrations differing by ½ LOG units.
The data from this assay is fitted to the following equation, from which the EC50 value may be solved: Y=Bottom+(Top−Bottom)/(1+10^((logEC50-X)*HillSlope)).
The EC50/IC50 is therefore defined as the concentration at which an agonist or antagonist elicits a response that is half way between the Top (maximum) and Bottom (baseline) values. The EC50/IC50 values represented are the averages of at least 2 and normally 3 independent experiments. The determination of the relative efficacy or % control for an agonist is by comparison to the maximum response achieved by ((N-(3-((4-fluorophenyl)-(naphthalene-2-sulfonyl)-amino)propyl)-2,2-dimethylpropionamide) that is measured individually in each dose response experiment.

[1] = efficacy relative to high control N-(3-((4-fluorophenyl)-(naphthalene-2-sulfonyl)amino)propyl)-2,2-dimethylpropionamide

EC50 | Emax [1] | SMILES | Emax
101 to 1000 nM | 13% | Cc1ccccc1Cc1nc(C(C)(C)O)cn1-c1ccc(-c2cc(F)c(CO)c(S(C)(=O)=O)c2)cc1 [Example 17, 2-(1-(3′-fluoro-4′-(hydroxymethyl)-5′-(methylsulfonyl)biphenyl-4-yl)-2-(2-methylbenzyl)-1H-imidazol-4-yl)propan-2-ol] | 
< 100 nM | 17% | CC(C)(O)c1cn(-c2ccc(-c3cc(F)c(CO)c(S(C)(=O)=O)c3)cc2)c(Cc2c(Cl)cccc2Cl)n1 [Example 18, 2-(2-(2,6-dichlorobenzyl)-1-(3′-fluoro-4′-(hydroxymethyl)-5′-(methylsulfonyl)biphenyl-4-yl)-1H-imidazol-4-yl)propan-2-ol] | 
> 1000 nM |  | CC(C)(O)c1cn(-c2ccc(-c3cc(F)c(CO)c(S(C)(=O)=O)c3)cc2)c(Cc2cc(F)ccc2Cl)n1 [Example 19, 2-[2-(2-Chloro-5-fluoro-benzyl)-1-(3′-fluoro-4′-hydroxymethyl-5′-methanesulfonyl-biphenyl-4-yl)-1H-imidazol-4-yl]-propan-2-ol] | 
101 to 1000 nM | 15% | CC(C)(O)c1cn(-c2ccc(-c3cc(F)c(CO)c(S(C)(=O)=O)c3)cc2F)c(Cc2ccccc2Cl)n1 [Example 20, 2-[2-(2-Chloro-benzyl)-1-(3,3′-difluoro-4′-hydroxymethyl-5′-methanesulfonyl-biphenyl-4-yl)-1H-imidazol-4-yl]-propan-2-ol] | 

SMILES | EC50 | Emax [1] | Emax
CC(c1c(Cl)cccc1Cl)c1nc(C(C)(C)O)cn1-c1ccc(-c2cc(F)c(CO)c(S(C)(=O)=O)c2)cc1F (stereo not drawn) [Example 21, 2-{2-[1-(2,6-dichlorophenyl)ethyl]-1-[3,3′-difluoro-4′-(hydroxymethyl)-5′-(methylsulfonyl)biphenyl-4-yl]-1H-imidazol-4-yl}propan-2-ol] | < 100 nM |  | 18%
